Data: paper PMC6751026 (Addiction biology, 2019)

Target: T1, α1 glycine receptor (GlyR) (Mus musculus, UniProt Q64018, K421A/K422A)
T1 sequence (Q64018 29-457 K421A/K422A): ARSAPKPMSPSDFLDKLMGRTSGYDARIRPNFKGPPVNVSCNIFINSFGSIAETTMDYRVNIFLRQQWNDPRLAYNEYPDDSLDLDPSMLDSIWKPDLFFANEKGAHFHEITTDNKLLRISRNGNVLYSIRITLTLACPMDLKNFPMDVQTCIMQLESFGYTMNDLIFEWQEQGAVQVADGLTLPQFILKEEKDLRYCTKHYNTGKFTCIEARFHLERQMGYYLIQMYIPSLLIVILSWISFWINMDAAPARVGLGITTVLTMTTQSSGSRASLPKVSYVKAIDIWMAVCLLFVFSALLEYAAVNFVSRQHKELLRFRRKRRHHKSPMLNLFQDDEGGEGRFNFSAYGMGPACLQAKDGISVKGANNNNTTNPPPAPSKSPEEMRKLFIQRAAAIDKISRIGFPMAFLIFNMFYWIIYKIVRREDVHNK
Assay: whole-cell patch clamp, glycine concentration-response
Format: cell-based

Structure (SMILES): NCC(=O)O [glycine]
- EC50: 54 ± 1 µM
